Patent publication US10144732B2 (BIOGEN MA INC., priority 2014, dated 2018)
“And” between values parts separate entries of the source, which are not always exact repeats. Equal entries are not always repeated. Structures can show the parent of a compound that is named as a salt. Where two headings read alike, the source gives them in different places.

Target: T1, Human ATX protein (Homo sapiens, UniProt Q13822)
T1 construct: made in house
Assay: ATX biochemical assay (FRET, FS-3 substrate)
Settings: FS-3 2 μM, ATX 1.0 μg/mL, 30 minutes preincubation, 2 hours reaction at room temperature
In short: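 In-house human ATX (1.0 μg/mL final) was preincubated with compound for 30 min at room temperature in Tris buffer pH 7.4 with 1 mg/mL fatty acid free-BSA. FS-3 substrate (2 μM final) was then hydrolysed for 2 hours at room temperature, protected from light, and read as fluorescence at ex 485/em 538 nm.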

Row | SMILES | IC50 (IC50, FRET assay) [µM] | IC50 (FRET assay, read-out: IC50)
1 | O=C(O)C1CC2CCC(C1)N2CC(=O)N1CCc2c(C(F)(F)F)nn(Cc3ccc(Cl)cc3F)c2C1 (stereo not drawn) [Example 13-4, 8-(2-(1-(4-Chloro-2-fluorobenzyl)-3-(trifluoromethyl)-4,5-dihydro-1H-pyrazolo[3,4-c]pyridin-6(7H)-yl)-2-oxoethyl)-8-azabicyclo[3.2.1]octane-3-carboxylic acid] | ≤ 0.1 | 
2 | O=C(O[C@H]1CC[C@@H](C(=O)O)CC1)N1CCc2c(C(F)(F)F)nn(Cc3ccc(Cl)cc3F)c2C1 [Example 7-9, cis-4-((1-(4-Chloro-2-fluorobenzyl)-3-(trifluoromethyl)-4,5,6,7-tetrahydro-1H-pyrazolo[3,4-c]pyridine-6-carbonyl)oxy)cyclohexanecarboxylic acid] |  | ≤ 0.1 µM
3 | CCOC(=O)[C@H]1CC[C@H](CC(=O)N2CCc3c(C(F)(F)F)nn(Cc4ccc(C)cc4)c3C2)CC1 [Example 1-25, trans-Ethyl 4-(2-(1-(4-methylbenzyl)-3-(trifluoromethyl)-4,5-dihydro-1H-pyrazolo[3,4-c]pyridin-6(7H)-yl)-2-oxoethyl)cyclohexanecarboxylate] |  | ≤ 0.1 µM
4 | CNC12CCC(C(=O)N3CCc4c(C(F)(F)F)nn(Cc5ccc(F)cc5)c4C3)(CC1)CC2 [Example 9-22, (1-(4-Fluorobenzyl)-3-(trifluoromethyl)-4,5-dihydro-1H-pyrazolo[3,4-c]pyridin-6(7H)-yl)(4-(methylamino)bicyclo[2.2.2]octan-1-yl)methanone TFA salt] |  | 0.25 to 0.5 µM
5 | CCCC1CC(CC(=O)N2CCc3c(C(F)(F)F)nn(Cc4ccc(F)cc4)c3C2)CCN1C (stereo not drawn) [Example 10-8, 1-(1-(4-Fluorobenzyl)-3-(trifluoromethyl)-4,5-dihydro-1H-pyrazolo[3,4-c]pyridin-6(7H)-yl)-2-(1-methyl-2-propylpiperidin-4-yl)ethanone acid TFA salt] |  | ≤ 0.1 µM
6 | O=C(C[C@H]1CC[C@@H](N2CC(F)(F)C2)CC1)N1CCc2c(C(F)(F)F)nn(Cc3ccc(F)cc3)c2C1 [Example 22-7, 2-(cis-4-(3,3-Difluoroazetidin-1-yl)cyclohexyl)-1-(1-(4-fluorobenzyl)-3-(trifluoromethyl)-4,5-dihydro-1H-pyrazolo[3,4-c]pyridin-6(7H)-yl)ethanone TFA salt] |  | ≤ 0.1 µM
7 | O=C(C[C@H]1CC[C@H](C(=O)O)CC1)N1CCc2c(C(F)(F)F)nn(C3CCCCC3)c2C1 [Example 7-19, trans-4-(2-(1-cyclohexyl-3-(trifluoromethyl)-4,5-dihydro-1H-pyrazolo[3,4-c]pyridin-6(7H)-yl)-2-oxoethyl)cyclohexanecarboxylic acid] |  | > 0.5 µM and ≤ 10 µM
8 | N#C[C@H]1CC[C@@H](CC(=O)N2CCc3c(C(F)(F)F)nn(Cc4ccc(F)cc4)c3C2)CC1 [Example 21-1, cis-4-(2-(1-(4-Fluorobenzyl)-3-(trifluoromethyl)-4,5-dihydro-1H-pyrazolo[3,4-c]pyridin-6(7H)-yl)-2-oxoethyl)cyclohexanecarbonitrile] |  | ≤ 0.1 µM
9 | O=C(O)CC1CN(CC(=O)N2CCc3c(C(F)(F)F)nn(Cc4ccc(Cl)cc4F)c3C2)C1 [Example 13-22, 2-(1-(2-(1-(4-Chloro-2-fluorobenzyl)-3-(trifluoromethyl)-4,5-dihydro-1H-pyrazolo[3,4-c]pyridin-6(7H)-yl)-2-oxoethyl)azetidin-3-yl)acetic acid TFA salt] |  | ≤ 0.1 µM
10 | N[C@H]1CC[C@H](CC(=O)N2CCc3c(C(F)(F)F)nn(Cc4ccc(Cl)cc4F)c3C2)CC1 [Example 9-19, 2-(trans-4-aminocyclohexyl)-1-(1-(4-chloro-2-fluorobenzyl)-3-(trifluoromethyl)-4,5-dihydro-1H-pyrazolo[3,4-c]pyridin-6(7H)-yl)ethanone TFA salt] |  | ≤ 0.1 µM
11 | CN(C(=O)N1CCc2c(C(F)(F)F)nn(Cc3ccc(Cl)cc3F)c2C1)[C@H]1CC[C@H](C(=O)O)CC1 [Example 5-10, trans-4-(1-(4-Chloro-2-fluorobenzyl)-N-methyl-3-(trifluoromethyl)-4,5,6,7-tetrahydro-1H-pyrazolo[3,4-c]pyridine-6-carboxamido)cyclohexanecarboxylic acid] |  | ≤ 0.1 µM
12 | CCOC(=O)[C@H]1CC[C@H](CC(=O)N2CCc3c(C(N)=O)nn(Cc4ccc(F)cc4)c3C2)CC1 [Example 1-42, trans-Ethyl 4-(2-(3-carbamoyl-1-(4-fluorobenzyl)-4,5-dihydro-1H-pyrazolo[3,4-c]pyridin-6(7H)-yl)-2-oxoethyl)cyclohexanecarboxylate] |  | > 0.5 µM and ≤ 10 µM
13 | CC(C(=O)N1CCc2c(C(F)(F)F)nn(Cc3ccc(Cl)cc3F)c2C1)N1CCC(C(=O)O)CC1 (stereo not drawn) [Example 13-8, 1-(1-(1-(4-Chloro-2-fluorobenzyl)-3-(trifluoromethyl)-4,5-dihydro-1H-pyrazolo[3,4-c]pyridin-6(7H)-yl)-1-oxopropan-2-yl)piperidine-4-carboxylic acid] |  | ≤ 0.1 µM
14 | O=C(O)CC1CCN(CC(=O)N2CCc3c(C(F)(F)F)nn(Cc4ccc(F)cc4)c3C2)CC1 [Example 13-15, 2-(1-(2-(1-(4-Fluorobenzyl)-3-(trifluoromethyl)-4,5-dihydro-1H-pyrazolo[3,4-c]pyridin-6(7H)-yl)-2-oxoethyl)piperidin-4-yl)acetic acid TFA salt] |  | ≤ 0.1 µM
15 | O=C(C[C@H]1CC[C@H](C(=O)O)CC1)N1CCc2c(C(F)(F)F)nn(Cc3ccncc3)c2C1 [Example 5-24, trans-4-(2-Oxo-2-(1-(pyridin-4-ylmethyl)-3-(trifluoromethyl)-4,5-dihydro-1H-pyrazolo[3,4-c]pyridin-6(7H)-yl)ethyl)cyclohexanecarboxylic acid] |  | ≤ 0.1 µM
16 | CCOC(=O)[C@H]1CC[C@H](CC(=O)N2CCc3c(C(F)(F)F)nn(CC4CCC(C)CC4)c3C2)CC1 (stereo partly drawn) [Example 1-48, trans-Ethyl 4-(2-(1-((4-methylcyclohexyl)methyl)-3-(trifluoromethyl)-4,5-dihydro-1H-pyrazolo[3,4-c]pyridin-6(7H)-yl)-2-oxoethyl) cyclohexanecarboxylate] |  | ≤ 0.1 µM
17 | O=C(CN1CCC(C(F)(F)F)CC1)N1CCc2c(C(F)(F)F)nn(Cc3ccc(Cl)cc3F)c2C1 [Example 12-8, 1-(1-(4-Chloro-2-fluorobenzyl)-3-(trifluoromethyl)-4,5-dihydro-1H-pyrazolo[3,4-c]pyridin-6(7H)-yl)-2-(4-(trifluoromethyl)piperidin-1-yl)ethanone] |  | ≤ 0.1 µM
18 | O=C(O)CCCCC(=O)N1CCc2c(C(F)(F)F)nn(Cc3ccc(Cl)cc3F)c2C1 [Example 14-1, 6-(1-(4-Chloro-2-fluorobenzyl)-3-(trifluoromethyl)-4,5-dihydro-1H-pyrazolo[3,4-c]pyridin-6(7H)-yl)-6-oxohexanoic acid] |  | ≤ 0.1 µM
19 | NC12CCC(C(=O)N3CCc4c(C(F)(F)F)nn(Cc5ccc(F)cc5)c4C3)(CC1)CC2 [Example 9-9, (4-Aminobicyclo[2.2.2]octan-1-yl)(1-(4-fluorobenzyl)-3-(trifluoromethyl)-4,5-dihydro-1H-pyrazolo[3,4-c]pyridin-6(7H)-yl)methanone TFA salt] |  | 0.1 to 0.25 µM
20 | O=C(CC1CCOCC1)N1CCc2c(C(F)(F)F)nn(Cc3ccc(F)cc3)c2C1 [Example 1-30, 1-(1-(4-Fluorobenzyl)-3-(trifluoromethyl)-4,5-dihydro-1H-pyrazolo[3,4-c]pyridin-6(7H)-yl)-2-(tetrahydro-2H-pyran-4-yl)ethanone] |  | ≤ 0.1 µM
21 | O=C(O)[C@H]1CC(CC(=O)N2CCc3c(C(F)(F)F)nn(Cc4ccc(Cl)cc4F)c3C2)CN1 (stereo partly drawn) [Example 9-14, (2R)-4-(2-(1-(4-Chloro-2-fluorobenzyl)-3-(trifluoromethyl)-4,5-dihydro-1H-pyrazolo[3,4-c]pyridin-6(7H)-yl)-2-oxoethyl)pyrrolidine-2-carboxylic acid TFA salt] |  | ≤ 0.1 µM
22 | CCOC(=O)c1nn(Cc2ccc(F)cc2)c2c1CCN(C(=O)C[C@H]1CC[C@H](C(=O)OCC)CC1)C2 [Example 1-40, Ethyl 6-(2-(trans-4-(ethoxycarbonyl)cyclohexyl)acetyl)-1-(4-fluorobenzyl)-4,5,6,7-tetrahydro-1H-pyrazolo[3,4-c]pyridine-3-carboxylate] |  | > 0.5 µM and ≤ 10 µM
23 | O=C(CC1CCCCC1)N1CCc2c(C(F)(F)F)nn(Cc3ccc(Cl)cc3F)c2C1 [Example 1-5, 1-(1-(4-Chloro-2-fluorobenzyl)-3-(trifluoromethyl)-4,5-dihydro-1H-pyrazolo[3,4-c]pyridin-6(7H)-yl)-2-cyclohexylethanone] |  | ≤ 0.1 µM
24 | COC(=O)C1CCC(C(=O)N2CCc3c(C(F)(F)F)nn(Cc4ccc(F)cc4)c3C2)CC1 (stereo not drawn) [Example 1-22, Methyl 4-(1-(4-fluorobenzyl)-3-(trifluoromethyl)-4,5,6,7-tetrahydro-1H-pyrazolo[3,4-c]pyridine-6-carbonyl)cyclohexanecarboxylate] |  | > 10 µM
25 | O=C(N1CCc2c(C(F)(F)F)nn(Cc3ccc(F)cc3)c2C1)C12CCN(CC1)CC2 [Example 1-36, (1-(4-Fluorobenzyl)-3-(trifluoromethyl)-4,5-dihydro-1H-pyrazolo[3,4-c]pyridin-6(7H)-yl)(quinuclidin-4-yl)methanone TFA salt] |  | 0.25 to 0.5 µM
26 | CCOC(=O)C1CCC(CC(=O)N2CCc3c(C(F)(F)F)nn(Cc4ccc(C(F)(F)F)cc4)c3C2)CC1 (stereo not drawn) [Example 1-10, Ethyl 4-(2-oxo-2-(3-(trifluoromethyl)-1-(4-(trifluoromethyl)benzyl)-4,5-dihydro-1H-pyrazolo[3,4-c]pyridin-6(7H)-yl)ethyl)cyclohexanecarboxylate] |  | ≤ 0.1 µM
27 | CCOC(=O)[C@H]1CC[C@H](CC(=O)N2CCc3c(C(F)(F)F)nn(Cc4ccc(F)cc4F)c3C2)CC1 [Example 1-50, trans-Ethyl 4-(2-(1-(2,4-difluorobenzyl)-3-(trifluoromethyl)-4,5-dihydro-1H-pyrazolo[3,4-c]pyridin-6(7H)-yl)-2-oxoethyl)cyclohexanecarboxylate] |  | ≤ 0.1 µM
